In patent US9193731B2, “Antimicrobial compounds and methods of making and using the same” (Melinta Therapeutics, Inc., priority 2009, dated 2015):

What follows are molecules tested on Escherichia coli strain ATCC25922 (assay: standard microdilution assay to determine minimum inhibitory concentrations (MICs)). Details: Escherichia coli strain ATCC25922, microdilution.
Type: cell-based
Outline: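 Broth microdilution MIC against E. coli ATCC25922, following CLSI protocols, typically in a 100 microliter final volume. Results reported as +/− relative to a 16 micrograms/ml cutoff.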

Row | Structure (SMILES) | E. coli ATCC25922 MIC
1 | N=C(N)NCCCNCC(O)Cn1cc2cc(-c3ccc(S(=O)(=O)NC4CCNCC4)cc3)[nH]c2nc1=O (centres unmarked) [Compound 977] | + (a “+” indicates that the compound has an MIC value of 16 micrograms/ml or less)
2 | N=C(N)NCCCNCc1ccc(-n2cc3cc(-c4cc(C(=O)Nc5cc(F)cc(F)c5)cc(N5CCNCC5)c4)[nH]c3nc2=O)cc1 [Compound 978] | + (a “+” indicates that the compound has an MIC value of 16 micrograms/ml or less)
3 | N=C(N)NCCCNCc1ccc(-n2cc3cc(-c4cccc(S(=O)(=O)N(Cc5ccc(Cl)c(Cl)c5)C5CCNCC5)c4)[nH]c3nc2=O)cc1 [Compound 979] | + (a “+” indicates that the compound has an MIC value of 16 micrograms/ml or less)
4 | N=C(N)NCCCNCc1ccc(-n2cc3cc(-c4cc(C(=O)N5Cc6ccccc6C5)cc(N5CCNCC5)c4)[nH]c3nc2=O)cc1 [Compound 981] | + (a “+” indicates that the compound has an MIC value of 16 micrograms/ml or less)
5 | N=C(N)NCCCNCc1ccc(-n2cc3cc(-c4cc(C(=O)Nc5cccc(F)c5)cc(N5CCNCC5)c4)[nH]c3nc2=O)cc1 [Compound 982] | + (a “+” indicates that the compound has an MIC value of 16 micrograms/ml or less)
6 | CN(C)Cc1ccc(-n2cc3cc(-c4ccc(S(=O)(=O)N(Cc5ccc(Cl)c(Cl)c5)C5CCNCC5)cc4)[nH]c3nc2=O)cc1 [Compound 983] | − (a “−” indicates that the compound has an MIC value greater than 16 micrograms/ml)
7 | N=C(N)NCCCN1CC=C(n2cc3cc(-c4ccc(S(=O)(=O)N(CC5COc6ccccc6O5)C5CCNCC5)cc4)[nH]c3nc2=O)CC1 (centres unmarked) [Compound 984] | + (a “+” indicates that the compound has an MIC value of 16 micrograms/ml or less)
8 | NCc1ccc(-n2cc3cc(-c4ccc(S(=O)(=O)N(CC5COc6ccccc6O5)C5CCNCC5)cc4)[nH]c3nc2=O)cc1 (centres unmarked) [Compound 985] | − (a “−” indicates that the compound has an MIC value greater than 16 micrograms/ml)
9 | Cc1cc(C)n2nc(CCCN(C3CCNCC3)S(=O)(=O)c3ccc(-c4cc5cn(-c6ccc(CNCCCNC(=N)N)cc6)c(=O)nc5[nH]4)cc3)nc2n1 [Compound 986] | − (a “−” indicates that the compound has an MIC value greater than 16 micrograms/ml)
10 | CN(C)Cc1ccc(-n2cc3cc(-c4ccc(S(=O)(=O)N(CCCN5CCCCC5)C5CCNCC5)cc4)[nH]c3nc2=O)cc1 [Compound 987] | − (a “−” indicates that the compound has an MIC value greater than 16 micrograms/ml)
11 | N=C(N)NCCCNCc1ccc(-n2cc3cc(-c4ccc(S(=O)(=O)N(CC5CN(Cc6ccccc6)CCO5)C5CCNCC5)cc4)[nH]c3nc2=O)cc1 (centres unmarked) [Compound 988] | + (a “+” indicates that the compound has an MIC value of 16 micrograms/ml or less)
12 | CN(Cc1ccccc1)C(=O)c1cc(-c2cc3cn(-c4ccc(CNCCCNC(=N)N)cc4)c(=O)nc3[nH]2)cc(N2CCNCC2)c1 [Compound 989] | + (a “+” indicates that the compound has an MIC value of 16 micrograms/ml or less)
13 | N=C(N)NCCCNCc1ccc(-n2cc3cc(CCS(=O)(=O)N(CCCc4ccccc4)C4CCNCC4)[nH]c3nc2=O)cc1 [Compound 990] | + (a “+” indicates that the compound has an MIC value of 16 micrograms/ml or less)
14 | N=C(N)NCCCNCc1ccc(-n2cc3cc(CCS(=O)(=O)N(CCC4CCCN4)C4CCNCC4)[nH]c3nc2=O)cc1 (centres unmarked) [Compound 991] | + (a “+” indicates that the compound has an MIC value of 16 micrograms/ml or less)
15 | N=C(N)NCCCNCc1ccc(-n2cc3cc(CCS(=O)(=O)N(CCCc4ccccc4F)C4CCNCC4)[nH]c3nc2=O)cc1 [Compound 992] | + (a “+” indicates that the compound has an MIC value of 16 micrograms/ml or less)
16 | N=C(N)NCCCNCc1ccc(-n2cc3cc(-c4cc(C(=O)Nc5ccc(F)cn5)cc(N5CCNCC5)c4)[nH]c3nc2=O)cc1 [Compound 994] | + (a “+” indicates that the compound has an MIC value of 16 micrograms/ml or less)
17 | N=C(N)NCCCNC(=O)c1ccc(-n2cc3cc(-c4ccc(S(=O)(=O)N(Cc5ccc(Cl)c(Cl)c5)C5CCNCC5)cc4)[nH]c3nc2=O)cc1 [Compound 995] | + (a “+” indicates that the compound has an MIC value of 16 micrograms/ml or less)
18 | N=C(N)NCCCNC(=O)c1ccc(-n2cc3cc(-c4ccc(S(=O)(=O)N(CC5CC5)C5CCNCC5)cc4)[nH]c3nc2=O)cc1 [Compound 996] | + (a “+” indicates that the compound has an MIC value of 16 micrograms/ml or less)
19 | N=C(N)NCCCNCc1ccc(-n2cc3cc(-c4cc(C(=O)NCCCF)cc(N5CCNCC5)c4)[nH]c3nc2=O)cc1 [Compound 997] | + (a “+” indicates that the compound has an MIC value of 16 micrograms/ml or less)
20 | Cc1cc([N+](=O)[O-])nn1CCCN(C1CCNCC1)S(=O)(=O)c1ccc(-c2cc3cn(-c4ccc(CNCCCNC(=N)N)cc4)c(=O)nc3[nH]2)cc1 [Compound 998] | + (a “+” indicates that the compound has an MIC value of 16 micrograms/ml or less)
21 | CN(C)Cc1ccc(-n2cc3cc(-c4ccc(S(=O)(=O)N(CC5COc6ccccc6O5)C5CCNCC5)cc4)[nH]c3nc2=O)cc1 (centres unmarked) [Compound 999] | − (a “−” indicates that the compound has an MIC value greater than 16 micrograms/ml)
22 | CN(C)Cc1ccc(-n2cc3cc(-c4ccc(S(=O)(=O)N(CCCC5CCCC5)C5CCNCC5)cc4)[nH]c3nc2=O)cc1 [Compound 1000] | − (a “−” indicates that the compound has an MIC value greater than 16 micrograms/ml)
23 | CN(C)Cc1ccc(-n2cc3cc(-c4ccc(S(=O)(=O)N(CC5CC5)C5CCNCC5)cc4)[nH]c3nc2=O)cc1 [Compound 1001] | − (a “−” indicates that the compound has an MIC value greater than 16 micrograms/ml)
24 | NCc1ccc(-n2cc3cc(-c4ccc(S(=O)(=O)N(CCCn5ccc(C(F)(F)F)n5)C5CCNCC5)cc4)[nH]c3nc2=O)cc1 [Compound 1002] | − (a “−” indicates that the compound has an MIC value greater than 16 micrograms/ml)
25 | N=C(N)NCCCNCc1ccc(-n2cc3cc(-c4ccc(S(=O)(=O)N(CCCn5cc(Cl)cn5)C5CCNCC5)cc4)[nH]c3nc2=O)cc1 [Compound 1003] | + (a “+” indicates that the compound has an MIC value of 16 micrograms/ml or less)
26 | N=C(N)NCCCN1CC=C(n2cc3cc(-c4ccc(S(=O)(=O)N(Cc5ccc6nonc6c5)C5CCNCC5)cc4)[nH]c3nc2=O)CC1 [Compound 1004] | + (a “+” indicates that the compound has an MIC value of 16 micrograms/ml or less)
27 | N=C(N)NCCCNCc1ccc(-n2cc3cc(-c4cc(C(=O)N5CCc6ccccc6C5)cc(N5CCNCC5)c4)[nH]c3nc2=O)cc1 [Compound 1009] | + (a “+” indicates that the compound has an MIC value of 16 micrograms/ml or less)
28 | N=C(N)NCCCNC(=O)c1ccc(-n2cc3cc(-c4ccc(S(=O)(=O)N(CC5COc6ccccc6O5)C5CCNCC5)cc4)[nH]c3nc2=O)cc1 (centres unmarked) [Compound 1010] | + (a “+” indicates that the compound has an MIC value of 16 micrograms/ml or less)
29 | N=C(N)NCCCNC(=O)c1ccc(-n2cc3cc(-c4ccc(S(=O)(=O)N(CCCC5CCCC5)C5CCNCC5)cc4)[nH]c3nc2=O)cc1 [Compound 1011] | + (a “+” indicates that the compound has an MIC value of 16 micrograms/ml or less)
